According to US10188625B2, “Combination of a retinoid and a diol and polyunsaturated fatty acid ester” (PIERRE FABRE DERMO-COSMETIQUE, priority 2015, dated 2019):

Tests used:
[1] = tested on: retentional lesions (open and closed comedones); assay: Clinical study (open) of creams: count of retentional lesions in subjects with mild to moderate acne; type: in vivo, human; details: topical cream (retinaldehyde 0.1% and/or Compound A 0.6%)
Source text: The clinical trial was an open study involving 60 subjects (men and women) between 12 and 35 years of age with mild to moderate acne for purposes of testing the tolerance and efficacy of Composition 2.
All of the participants initially had more than 10 retentional lesions (open and closed comedones) on their skin (excluding the nasal pyramid).
The cream was applied to the face (clean skin) in the evening by means of gentle massage.
The lesions were counted at T0 (before the first treatment), T3 weeks and T6 weeks according to the method described by Lucky (Lucky AW et al. (1996)).
The clinical trial was an open study involving 29 subjects (men and women) between 12 and 35 years of age with mild to moderate acne for purposes of testing the tolerance and efficacy of cream having the following composition:
All of the participants initially had more than 10 retentional lesions (open and closed comedones) on their skin.
The lesions were counted at T0, T3 weeks and T6 weeks.
The clinical trial was an open study involving 46 subjects (men and women) between 12 and 35 years of age with mild to moderate acne for purposes of testing the tolerance and efficacy of cream having the following composition:
The cream was applied to the face (clean skin) twice per day (morning and evening) by means of gentle massage.

[2] = tested on: genes responsible for differentiation in keratinocytes (human skin explants); assay: Microarray analysis of differentiation genes in human skin explants treated topically with retinaldehyde; type: cell-based
Procedure: In these experiments, retinaldehyde was applied topically for 24 hours at a concentration of 0.025% dissolved in Myritol on human skin explants (of 3 donors) kept alive in culture medium (Dulbecco's Modified Eagle Medium (DMEM)+10% fetal bovine serum (FBS)). Myritol alone was used as the control. At the conclusion of this treatment, the RNA is extracted, inspected for quality, and analyzed by means of a microarray (Agilent Technology). They are averaged fold-change values below 1.8 (p<0.05). A fold change of −2.00 corresponds to a decrease in gene expression of about 50%.

[3] = tested on: keratinocyte proliferation; assay: Keratinocyte proliferation; type: cell-based
[4] = tested on: genes responsible for differentiation in keratinocytes (human skin explants); assay: Microarray analysis of differentiation genes in human skin explants treated topically with retinaldehyde; type: cell-based; details: 0.025% in Myritol, topical 24 hours
[5] = human skin explants (3 donors), control Myritol alone, p 0.115

CC/C=C\C/C=C\C/C=C\CCCCCCCC(=O)OCC(O)CCCCCC (centres unmarked) [Compound A]
Change in mean number of retentional lesions ([1]; T = 3 weeks): −6% | Change in mean number of retentional lesions ([1]; T = 6 weeks): −19%

CC1=C(/C=C/C(C)=C/C=C/C(C)=C/C=O)C(C)(C)CCC1 [Retinaldehyde, retinaldehyde]
Change in mean number of retentional lesions ([1]; T = 3 weeks): −23% | Change in mean number of retentional lesions ([1]; T = 6 weeks): −37% | Fold change, KRTCAP3 (keratinocyte associated protein 3) ([2]; 0.025% in Myritol, topical 24 hours, human skin explants (3 donors), control Myritol alone, p 0.009): −1.81 | Fold change, KRT6A (keratin 6A) ([2]; 0.025% in Myritol, topical 24 hours, human skin explants (3 donors), control Myritol alone, p 0.012): −2.83 | Fold change, KRT6C (keratin 6C) ([2]; 0.025% in Myritol, topical 24 hours, human skin explants (3 donors), control Myritol alone, p 0.015): −3.61 | Fold change, FLJ46111 (keratin 8 pseudogene) ([2]; 0.025% in Myritol, topical 24 hours, human skin explants (3 donors), control Myritol alone, p 0.016): −2.71 | Fold change, EPPK1 (epiplakin 1) ([2]; 0.025% in Myritol, topical 24 hours, human skin explants (3 donors), control Myritol alone, p 0.042): −1.60 | effect on keratinocyte differentiation ([2]; conclusion from gene modulation in human skin explants): inhibits keratinocyte differentiation | effect on cell (keratinocyte) proliferation [3]: does not increase cell proliferation | number of keratins inhibited ([4]; human skin explants): 11 | number of targets of terminal keratinocyte differentiation inhibited ([4]; human skin explants): 13 | Fold change, CNFN (cornifelin) ([4]; human skin explants (3 donors), control Myritol alone, p 0.004): −1.56 | Fold change, KRT16 (keratin 16) ([4]; human skin explants (3 donors), control Myritol alone, p 0.027): −2.63 | Fold change, CDSN (corneodesmosin) ([4]; human skin explants (3 donors), control Myritol alone, p 0.052): −1.49 | Fold change, DSG3 (desmoglein 3) ([4]; human skin explants (3 donors), control Myritol alone, p 0.056): −1.77 | Fold change, DSC1 (desmocollin 1) ([4]; human skin explants (3 donors), control Myritol alone, p 0.058): −1.70 | Fold change, DSG1 (desmoglein 1) ([4]; human skin explants (3 donors), control Myritol alone, p 0.070): −1.68 | Fold change, EVPL (envoplakin) ([4]; human skin explants (3 donors), control Myritol alone, p 0.072): −1.41 | Fold change, UPK2 (uroplakin 2) ([4]; human skin explants (3 donors), control Myritol alone, p 0.091): −1.53 | Fold change, DSC3 (desmocollin 3) ([4]; human skin explants (3 donors), control Myritol alone, p 0.095): −1.55 | Fold change, KRTAP11-1 (keratin associated protein 11-1) [4, 5]: −4.68 | Fold change, LCE3A (late cornified envelope 3A) [4, 5]: −2.73 | Fold change, LCE3D (late cornified envelope 3D) ([4]; human skin explants (3 donors), control Myritol alone, p 0.271): −1.90 | Fold change, KRTAP3-1 (keratin associated protein 3-1) ([4]; human skin explants (3 donors), control Myritol alone, p 0.288): −2.09 | Fold change, KRT6B (keratin 6B) ([4]; human skin explants (3 donors), control Myritol alone, p 0.325): −1.83 | Fold change, KRT27 (keratin 27) ([4]; human skin explants (3 donors), control Myritol alone, p 0.372): −2.66 | Fold change, KRT86 (keratin 86) ([4]; human skin explants (3 donors), control Myritol alone, p 0.472): −2.19
